Experimental data from patent US20210346388A1, “CDC7-Inhibiting Purine Derivatives and their use for the Treatment of Neurological Conditions” (CONSEJO SUPERIOR DE INVESTIGACIONES CIENTIFICAS (CSIC), priority 2018, published 2021).

Experiments:
[1] = target: recombinant human Cdc7/DBF4 (Homo sapiens, UniProt O00311); assay: LanthaScreen Eu Kinase Inhibition Assay (Cdc7 inhibition); type: binding; details: recombinant human Cdc7/DBF4 0.5 nM, 60 min room temperature, 1% DMSO; read-out: Cdc7 CI50
Source text: The LanthaScreen Eu Kinase Inhibition Assay uses an Alexa Fluor™ marker which binds to a kinase and is detected by the addition of an Eu-labelled antibody. The binding of the marker and the antibody to the kinase results in a high degree of FRET, whereas the displacement of the marker by an inhibitor results in a loss of FRET. Unlike many other kinase activity assays, this is a simple mix and read assay, without stages of development. This assay method has been developed by “Life Technologies” and they identify competitive ATP kinase inhibitors, making them suitable for the detection of any compound which binds to the ATP site.
The compounds are evaluated in 1% DMSO (final) in the well. A mixture of recombinant human Cdc7/DBF4 (0.5 nM), Eu-anti-GST antibody (2 nM) and Alexa Fluor marker (1 nM) in a buffer of 50 mM HEPES pH 7.5, 0.01% BRIJ-35, 10 mM MgCl2, 1 mM EGTA was used. In white plates with […], with a low volume, and coded (Greiner cat. #784207), 160 nL (100×compound in 100% DMSO), 3.84 μl (buffer with Cdc7/DBF4), […] (antibody), 4.0 μl (marker) are added. It is stirred for 30 s and incubated at room temperature for 60 min. Next, the fluorescence is measured in the plate reader and the data is analysed (Table 1).

[2] = PAMPA-BBB permeability (porcine brain lipid artificial membrane); type: in vitro ADME; parameters: key to PAMPA prediction of the penetration into the central nervous system (CNS): permeable to the BBB (CNS+) if it has a permeability >4.48×10^−6 cm·s^−1; CNS+/−: located in the zone of uncertainty; details: for Papp at 2.5 h: pig, PAMPA, porcine brain lipid, PBS pH 7.4/EtOH 70:30, 2 h 30 min at 25° C., mean ± SD, read-out: Pe (permeability, PAMPA-BBB); for PAMPA prediction of the penetration into the central nervous system (CNS): prediction from Pe, PAMPA-BBB
Source text: An essential requirement that must be met by drugs for the treatment of neurodegenerative diseases is the ability to cross the blood-brain barrier (BBB) since, otherwise, they could not act on the target of interest. Therefore, for the compounds that are non-permeable or located in the zone of uncertainty, it could be necessary for them to be suitably conveyed in a pharmaceutical formulation by means of methods known by those skilled in the art, such as by means of encapsulation. This ability can be predicted in vitro by using a method known by the acronym PAMPA (Parallel Artificial Membrane Permeability Assay) described by Di et al. (Di, L.; Kerns, E. H.; Fan, K.; McConnell, O. J.; Carter, G. T. Eur. J. Med. Chem., 2003, 38 (3), 223-232) and that has subsequently been fine-tuned in our research group. Said method enables the effective permeability through artificial membranes to be predicted by means of a passive diffusion process.
First, it is necessary to validate the method, for which reason 10 commercial compounds, whose ability to penetrate the central nervous system (CNS) is known, are used and will be specified below, obtaining in this case good linear correlation between the experimental permeability values (Pe) and those described (FIG. 1). This correlation line obtained following the pattern described in the literature makes it possible to establish the limits for predicting whether a compound can cross the blood-brain barrier or not. Thus, a compound is considered to be permeable to the BBB (CNS+) if it has a permeability >4.48×10^−6 cm·s^−1.
For the procedure, between 3-5 mg of caffeine, desipramine, enoxacin, hydrocortisone, ofloxacin, piroxicam and testosterone, 12 mg of promazine and 25 mg of atenolol and verapamil were taken and dissolved in EtOH (1000 μl). 100 μl of these solutions were taken and EtOH (1400 μl) and phosphate buffer (PBS) pH=7.4 (3500 μl) were added in order to reach a final EtOH concentration of 30% v/v in solution. Lastly, the solutions were filtered.
Moreover, a solution of PBS/EtOH (70:30) was added to each well of the acceptor plate (180 μl). The donor plate was impregnated with a solution of porcine brain lipid (4 μl) dissolved in dodecane (20 mg·ml^−1). After 5 min, a solution of each compound was added on this plate (180 μl).
Of the compounds evaluated, between 1-2 mg were taken and dissolved in EtOH (1500 μl) and phosphate buffer (PBS) pH=7.4 (3500 μl), filtered and added to the donor plate. With these solutions, the wavelengths at which they absorb the compounds are determined and the initial absorbance levels at these wavelengths are measured by using a UV absorbance reader. Each sample was analysed at two to five wavelengths, in three wells and in two independent experiments.
Next, the donor plate was deposited on the acceptor plate forming a sort of “sandwich” and they were left to incubate for 2 h and 30 min at 25° C. Thus, the compounds will pass from the donor plate to the acceptor plate through the porcine brain lipid by means of passive diffusion. After that time, the donor plate is carefully removed and the final concentration and absorbance of both the commercial and the synthesised compounds are determined. The results obtained are expressed as the mean of the measurements [standard deviation (SD)] of the different experiments performed and are recorded in Table 2.

[3] = system: SH-SY5Y human neuroblastoma cell line; assay: cells; type: cell-based
Method: The data represents the mean of four different experiments ±SEM (*p<0.05).
The SH-SY5Y human neuroblastoma cell line was grown at 37° C. with 5% CO2 in DMEN (Dulbecco's Modified Eagle Medium) enriched with L-glutamine (2 mM), 1% non-essential amino acids, 1% Penicillin/Streptomycin and 10% foetal bovine serum. In the state of semi-confluence, the cells were treated with the Cdc7 inhibitor (compound 3) at different concentrations for 1.30 hours post-addition of the causative agent of the TDP-43 phosphorylation; ethacrynic acid (20 μM) (Sigma). At 24 hours, the cellular viability was evaluated with MTT ([3-(4,5-dimethylthiazol-2-yl)-2,5-diphenyltetrazolium bromide) following a described procedure (Denizot F, Lang R. J Immunol Methods. 1987; 89:271-7).

Sequence of recombinant human Cdc7/DBF4 (O00311 whole entry): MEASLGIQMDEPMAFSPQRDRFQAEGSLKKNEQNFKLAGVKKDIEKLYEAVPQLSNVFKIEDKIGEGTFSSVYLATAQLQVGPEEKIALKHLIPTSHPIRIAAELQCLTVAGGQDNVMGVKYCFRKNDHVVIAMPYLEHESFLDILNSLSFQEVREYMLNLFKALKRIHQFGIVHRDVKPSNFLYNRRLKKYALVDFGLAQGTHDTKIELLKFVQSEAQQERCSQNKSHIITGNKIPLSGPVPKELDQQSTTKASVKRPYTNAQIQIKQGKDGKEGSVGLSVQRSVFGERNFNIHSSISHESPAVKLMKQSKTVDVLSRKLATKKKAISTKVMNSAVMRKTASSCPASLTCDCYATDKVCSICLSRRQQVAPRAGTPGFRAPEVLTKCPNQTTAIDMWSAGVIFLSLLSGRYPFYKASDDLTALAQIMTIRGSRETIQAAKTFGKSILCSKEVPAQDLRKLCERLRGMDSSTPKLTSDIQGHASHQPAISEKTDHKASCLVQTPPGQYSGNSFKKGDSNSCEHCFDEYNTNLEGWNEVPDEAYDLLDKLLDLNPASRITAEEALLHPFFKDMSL
Sequence of recombinant human Cdc7/DBF4 (Q9UBU7 whole entry partner): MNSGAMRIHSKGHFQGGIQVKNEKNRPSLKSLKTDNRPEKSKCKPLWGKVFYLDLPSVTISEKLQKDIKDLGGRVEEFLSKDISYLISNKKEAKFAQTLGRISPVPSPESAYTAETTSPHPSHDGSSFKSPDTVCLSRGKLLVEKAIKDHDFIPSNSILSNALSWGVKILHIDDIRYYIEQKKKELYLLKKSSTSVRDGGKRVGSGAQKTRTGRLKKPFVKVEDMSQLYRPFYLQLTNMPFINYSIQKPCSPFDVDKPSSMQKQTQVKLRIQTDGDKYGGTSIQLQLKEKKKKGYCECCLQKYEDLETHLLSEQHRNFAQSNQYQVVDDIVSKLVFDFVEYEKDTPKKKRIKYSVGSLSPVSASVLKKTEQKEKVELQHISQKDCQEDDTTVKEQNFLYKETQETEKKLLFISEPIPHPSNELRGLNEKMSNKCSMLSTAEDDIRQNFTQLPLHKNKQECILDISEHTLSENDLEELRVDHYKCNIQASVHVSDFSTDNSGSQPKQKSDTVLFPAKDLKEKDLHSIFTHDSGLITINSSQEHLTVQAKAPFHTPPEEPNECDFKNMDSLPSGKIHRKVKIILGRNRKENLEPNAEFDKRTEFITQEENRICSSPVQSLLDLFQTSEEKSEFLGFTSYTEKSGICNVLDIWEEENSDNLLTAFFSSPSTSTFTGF

| IC50 [1] | Papp at 2.5 h [2] | SMILES | PAMPA prediction of the penetration into the central nervous system (CNS) [2] | Reversal of cell death caused by ethacrynic acid (neuroprotective effect, MTT viability) ([3]; SH-SY5Y cells, ethacrynic acid 20 μM, inhibitor at 10 μM, viability at 24 hours) | mortality at 20 µM ([3]; Homo sapiens, SH-SY5Y, 24 h, read-out: Cell mortality due to excess TDP-43 phosphorylation) |
| --- | --- | --- | --- | --- | --- |
| 1080 nM | 2.5 ± 0.1 ×10⁻⁶ cm/s | COc1ccc(C(=O)CSc2ncnc3[nH]cnc23)cc1 [compound 2, 1-(4-methoxyphenyl)-2-((9H-purin-6-yl)thio)-ethan-1-one] | CNS+/− | – | – |
| 698 nM | 9.6 ± 0.8 ×10⁻⁶ cm/s | O=C(CSc1ncnc2[nH]cnc12)c1ccc2ccccc2c1 [compound 3, 1-(naphthalen-2-yl)-2-((9H-purin-6-yl)thio)-ethan-1-one] | CNS+ (permeable to the BBB (CNS+) if it has a permeability >4.48×10^−6 cm·s^−1) | this death is reversed | – |
| 1710 nM | 2.4 ± 1 ×10⁻⁶ cm/s | COc1cccc(C(=O)CSc2ncnc3[nH]cnc23)c1 [compound 4, 1-(3-methoxyphenyl)-2-((9H-purin-6-yl)thio)-ethan-1-one] | CNS+/− | – | – |
| 142 nM | 25.1 ± 1.3 ×10⁻⁶ cm/s | Clc1ccc(CCSc2ncnc3[nH]cnc23)cc1 [compound 6, 6-((4-chlorophenethyl)thio)-9H-purine] | CNS+ (permeable to the BBB (CNS+) if it has a permeability >4.48×10^−6 cm·s^−1) | – | – |
| 305 nM | 10.6 ± 0.5 ×10⁻⁶ cm/s | Clc1cccc(CCSc2ncnc3[nH]cnc23)c1 [compound 7, 6-((3-chlorophenethyl)thio)-9H-purine] | CNS+ (permeable to the BBB (CNS+) if it has a permeability >4.48×10^−6 cm·s^−1) | – | – |
| – | 11.6 ± 0.5 ×10⁻⁶ cm/s | Clc1ccccc1CCSc1ncnc2[nH]cnc12 [compound 8, 6-((2-chlorophenethyl)thio)-9H-purine] | CNS+ (permeable to the BBB (CNS+) if it has a permeability >4.48×10^−6 cm·s^−1) | – | – |
| 397 nM | 10.2 ± 0.5 ×10⁻⁶ cm/s | Fc1ccc(CCSc2ncnc3[nH]cnc23)cc1 [compound 9, 6-((4-fluorophenethyl)thio)-9H-purine] | CNS+ (permeable to the BBB (CNS+) if it has a permeability >4.48×10^−6 cm·s^−1) | – | – |
| 234 nM | 4.5 ± 1.2 ×10⁻⁶ cm/s | c1ccc(CSc2ncnc3[nH]ccc23)cc1 [compound 10, 4-(benzylthio)-7H-pyrrolo[2,3-d]pyrimidine] | CNS+ (permeable to the BBB (CNS+) if it has a permeability >4.48×10^−6 cm·s^−1) | – | – |
| – | – | C=C(CC)C(=O)c1ccc(OCC(=O)O)c(Cl)c1Cl [ethacrynic acid, reference compound] | – | – | 40% |

| SMILES | IC50 [1] | Papp at 2.5 h [2] | PAMPA prediction of the penetration into the central nervous system (CNS) [2] | Reversal of cell death caused by ethacrynic acid (neuroprotective effect, MTT viability) ([3]; SH-SY5Y cells, ethacrynic acid 20 μM, inhibitor at 10 μM, viability at 24 hours) | mortality at 20 µM ([3]; Homo sapiens, SH-SY5Y, 24 h, read-out: Cell mortality due to excess TDP-43 phosphorylation) |
| --- | --- | --- | --- | --- | --- |
| O=C(CSc1ncnc2[nH]cnc12)c1ccc(I)cc1 [compound 5, 1-(4-iodophenyl)-2-((9H-purin-6-yl)thio)-ethan-1-one] | 380 nM | 10.5 ± 1.2 ×10⁻⁶ cm/s | CNS+ (permeable to the BBB (CNS+) if it has a permeability >4.48×10^−6 cm·s^−1) | – | – |
